compound: COC1=CC=C(C=C1)CN2C=CC3=C2C=C(C=C3)C(=O)NO + COc1cccc2cc(-c3nc([C@H]4CC[C@H](C(=O)O)CC4)n4ncnc(N)c34)[nH]c12 [OSI-027] (partner 0.5 µM); test: relative viability (nuclei count vs DMSO), 5 days (fraction); higher = more cells survive; conditions: first compound 8 µM
Procedure, shortened: (§1)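 Relative viability divides the nuclei count in treated wells by that in vehicle wells. Lung cancer cell lines were seeded in 1536-well plates, dosed by pin tool the next day, and fixed and stained after 5 days in one step with final 0.05% Triton X-100, 1% formaldehyde and 1 ug/ml Hoechst. Dosing was a single drug or a fixed anchor-drug dose plus five library-drug doses (not always all listed) in √10 steps, and values are medians of duplicate plates imaged at 4×.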

Cell Line | relative viability
NCI-H520 | 0.279
NCI-H1648 | 0.246
NCI-H358 | 0.67
HCC-78 | 0.366
EKVX | 0.64
NCI-H1650 | 0.542
EPLC-272H | 0.267
LK-2 | 0.208
PC-14 | 0.658
LXF-289 | 0.716
NCI-H1563 | 0.712

compound: COC1=CC=C(C=C1)CN2C=CC3=C2C=C(C=C3)C(=O)NO + CC(=O)c1c(C)c2cnc(Nc3ccc(N4CCNCC4)cn3)nc2n(C2CCCC2)c1=O [Palbociclib] (partner 0.5 µM); test: as above; conditions: first compound 0.08 µM
Procedure, shortened: as §1

Cell Line | relative viability
NCI-H2342 | 0.467
NCI-H1975 | 0.347
H3255 | 0.301
NCI-H2023 | 0.36
NCI-H2405 | 0.476
SK-LU-1 | 0.385
NCI-H1437 | 0.283
HCC-15 | 0.712
NCI-H460 | 0.201
EMC-BAC-2 | 0.401
NCI-H2009 | 0.211
COR-L 105 | 0.33
NCI-H520 | 0.197
NCI-H1648 | 0.254
HCC-78 | 0.437
NCI-H1650 | 0.355
PC-14 | 0.533

same assay, conditions: first compound 0.253 µM

Cell Line | relative viability
NCI-H2342 | 0.586
LU99A | 0.406
NCI-H1975 | 0.627
H3255 | 0.304
NCI-H2023 | 0.355
SK-LU-1 | 0.374
NCI-H1734 | 0.367
NCI-H1437 | 0.295
ABC-1 | 0.768
HCC-15 | 0.716
NCI-H460 | 0.173
NCI-H2009 | 0.215
COR-L 105 | 0.435
NCI-H1395 | 0.632
NCI-H520 | 0.194
NCI-H1648 | 0.309
NCI-H358 | 0.125
HCC-78 | 0.473
EKVX | 0.408
NCI-H1650 | 0.341
EPLC-272H | 0.325
LK-2 | 0.821
PC-14 | 0.599
LXF-289 | 0.588

same assay, conditions: first compound 0.8 µM

Cell Line | relative viability
NCI-H2342 | 0.52
LU99A | 0.424
NCI-H1975 | 0.604
H3255 | 0.316
NCI-H2023 | 0.433
NCI-H2405 | 0.55
SK-LU-1 | 0.422
NCI-H1734 | 0.387
NCI-H1437 | 0.344
ABC-1 | 0.713
HCC-15 | 0.733
NCI-H460 | 0.0964
EMC-BAC-2 | 0.528
NCI-H2009 | 0.243
COR-L 105 | 0.449
NCI-H1395 | 0.709
NCI-H520 | 0.208
NCI-H1648 | 0.298
NCI-H358 | 0.115
HCC-78 | 0.45
EKVX | 0.387
NCI-H1650 | 0.354
EPLC-272H | 0.314
LK-2 | 0.832
PC-14 | 0.567
LXF-289 | 0.609

same assay, conditions: first compound 2.53 µM

Cell Line | relative viability
NCI-H2342 | 0.538
LU99A | 0.416
NCI-H1975 | 0.665
H3255 | 0.311
NCI-H2023 | 0.359
NCI-H2405 | 0.513
SK-LU-1 | 0.434
NCI-H1734 | 0.341
NCI-H1437 | 0.366
ABC-1 | 0.77
HCC-15 | 0.745
NCI-H460 | 0.186
EMC-BAC-2 | 0.511
NCI-H2009 | 0.226
COR-L 105 | 0.416
NCI-H1395 | 0.6
NCI-H520 | 0.214
NCI-H1648 | 0.277
NCI-H358 | 0.14
HCC-78 | 0.496
EKVX | 0.384
NCI-H1650 | 0.426
EPLC-272H | 0.311
LK-2 | 0.582
PC-14 | 0.509
LXF-289 | 0.607

same assay, conditions: first compound 8 µM

Cell Line | relative viability
NCI-H2342 | 0.559
LU99A | 0.352
NCI-H1975 | 0.537
H3255 | 0.32
NCI-H2023 | 0.365
NCI-H2405 | 0.481
SK-LU-1 | 0.341
NCI-H1734 | 0.34
NCI-H1437 | 0.326
ABC-1 | 0.615
HCC-15 | 0.739
NCI-H460 | 0.108
EMC-BAC-2 | 0.459
NCI-H2009 | 0.162
COR-L 105 | 0.397
NCI-H1395 | 0.563
NCI-H520 | 0.195
NCI-H1648 | 0.269
NCI-H358 | 0.191
HCC-78 | 0.452
EKVX | 0.351
NCI-H1650 | 0.351
EPLC-272H | 0.319
LK-2 | 0.699
PC-14 | 0.535
LXF-289 | 0.581

compound: COC1=CC=C(C=C1)CN2C=CC3=C2C=C(C=C3)C(=O)NO + N=C(N)NC(=N)NCCc1ccccc1 [Phenformin] (partner 250 µM); test: as above; conditions: first compound 0.08 µM
Procedure, shortened: as §1

Cell Line | relative viability
NCI-H2342 | 0.588
NCI-H1623 | 0.396
